In ChEMBL document CHEMBL1201862, “PubChem BioAssay data set” (2004):
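Five compound concentrations were applied to cells in 96-well plates for 48 hours; endpoints were derived by simple linear interpolation of the resulting dose-response curve. The concentration for 50% growth inhibition is given as GI50.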 Active and inactive are the calls of the source. Rule as the data show it: active = GI50 up to about 1.1 µM and inactive = higher.

Experiments:
Experiment in all cases: NCI-60 cell line screen, 48 h
[1] = test system: 786-0
[2] = test system: CCRF-CEM
[3] = test system: HCT-116
[4] = test system: IGROV-1
[5] = test system: K562
[6] = test system: KM12
[7] = test system: LOX IMVI
[8] = test system: OVCAR-5
[9] = test system: RPMI-8226
[10] = test system: SF-268
[11] = test system: SK-MEL-28
[12] = test system: SK-MEL-5
[13] = test system: UACC-257
[14] = test system: A498

Measured: GI50

CCCCCCCCCCCC(=O)c1c(O)cccc1O
inactive: [1] 18.1 µM | [2] 24.5 µM | [3] 18 µM | [4] 18.1 µM | [5] 31.9 µM | [6] 16 µM | [7] 18.8 µM | [8] 15.2 µM | [9] 26.7 µM | [10] 16.3 µM | [11] 17.8 µM | [12] 13.6 µM | [13] 16.7 µM

Clc1ccc(C2=Nc3ccccc3SC(c3cccs3)C2)cc1 (stereo unspecified)
inactive: [1] 16.3 µM | [14] 14.9 µM | [3] 7.67 µM | [4] 14 µM | [5] 5.16 µM | [6] 10.7 µM | [7] 7.19 µM | [8] 14.5 µM | [9] 2.42 µM | [10] 16.3 µM | [11] 17.6 µM | [12] 16.5 µM | [13] 15.7 µM

COc1nc(OC)c2c(=O)oc(-c3ccccc3)cc2n1
inactive: [1] > 100 µM | [3] > 100 µM | [4] > 100 µM | [5] > 100 µM | [6] > 100 µM | [8] > 100 µM | [9] > 100 µM | [10] > 100 µM | [11] > 100 µM | [12] > 100 µM | [13] > 100 µM

COc1ccc2c(c1)CC1NC2Cc2ccccc21 (stereo unspecified)
inactive: [1] > 100 µM | [14] > 100 µM | [2] > 100 µM | [3] > 100 µM | [4] > 100 µM | [5] > 100 µM | [6] > 100 µM | [8] > 100 µM | [9] > 100 µM | [10] > 100 µM | [11] > 100 µM | [12] > 100 µM | [13] > 100 µM

N=C(N)NNC(=O)CCCCCCCC(=O)NNC(=N)N
inactive: [1] > 100 µM | [14] > 100 µM | [2] > 100 µM | [3] > 100 µM | [4] > 100 µM | [5] > 100 µM | [6] > 100 µM | [7] > 100 µM | [8] > 100 µM | [10] > 100 µM | [11] > 100 µM | [12] > 100 µM | [13] > 100 µM

COc1ccc2c(c1)[n+]([O-])c(-c1nc3ccccc3s1)c(N)[n+]2[O-]
inactive: [1] > 100 µM | [14] 45.8 µM | [3] 54.3 µM | [4] > 100 µM | [5] 64.4 µM | [6] > 100 µM | [8] > 100 µM | [9] 35.5 µM | [11] 55.6 µM | [12] 38.8 µM | [13] 63.5 µM

CCOC(=O)c1cc(/C=C/C(C)=C/C(=O)OC)oc1C
inactive: [1] > 100 µM | [2] > 100 µM | [3] > 100 µM | [4] > 100 µM | [5] > 100 µM | [6] > 100 µM | [7] > 100 µM | [8] > 100 µM | [9] > 100 µM | [10] > 100 µM | [11] > 100 µM | [13] > 100 µM

Cc1nc(-c2nc(C)c(C(=O)/C=C/c3ccc(N(C)C)cc3)s2)sc1C(=O)/C=C/c1ccc(N(C)C)cc1
inactive: [1] 54 µM | [2] > 100 µM | [3] 29.3 µM | [4] 31 µM | [5] 33.4 µM | [6] 40.9 µM | [7] 38.3 µM | [8] > 100 µM | [10] > 100 µM | [11] 67.3 µM | [13] > 100 µM

CCOC(=O)C1=C(Nc2cccc3ccccc23)OCC1=O
inactive: [1] > 100 µM | [14] > 100 µM | [2] > 100 µM | [3] > 100 µM | [4] > 100 µM | [5] > 100 µM | [6] > 100 µM | [8] > 100 µM | [9] > 100 µM | [10] > 100 µM | [11] 43.5 µM | [12] > 100 µM | [13] > 100 µM

O=C1C=CC(=O)c2nc3c(cc21)CCC3
inactive: [1] 18 µM | [2] 5.61 µM | [3] 15.5 µM | [4] 17.8 µM | [5] 16.9 µM | [6] > 100 µM | [7] 15.3 µM | [8] > 100 µM | [10] 17.9 µM | [11] 25.6 µM | [12] 20.4 µM | [13] 19.6 µM

Brc1cccc(C2SCc3nc4ccccc4n32)c1 (stereo unspecified)
inactive: [1] 17.5 µM | [2] 26.2 µM | [3] 14.5 µM | [4] 21.7 µM | [5] 9.98 µM | [6] 16.1 µM | [7] 14.6 µM | [8] 6.01 µM | [9] 12.5 µM | [10] 33.5 µM | [11] 17.1 µM | [12] 6.4 µM

N=C(N)N/N=C/c1c[nH]c2ccccc12
inactive: [1] > 100 µM | [2] > 100 µM | [4] > 100 µM | [5] > 100 µM | [6] > 100 µM | [7] > 100 µM | [8] > 100 µM | [9] > 100 µM | [10] > 100 µM | [11] > 100 µM | [12] > 100 µM | [13] > 100 µM

CN(C)CCNC(=O)c1cccc2ccc(-c3ccncc3)nc12
inactive: [1] 2.72 µM | [14] 1.3 µM | [2] 1.87 µM | [3] 1.27 µM | [4] 1.47 µM | [5] 2.58 µM | [6] 3.67 µM | [7] 1.39 µM | [8] 1.93 µM | [10] 3.79 µM | [11] 4.86 µM | [12] 1.55 µM | [13] 2.06 µM

CCCc1c2c([nH]c(=O)c1C)C(=O)c1[nH]c(=O)c(C)c(CCC)c1C2=O
inactive: [1] 25.1 µM | [14] > 100 µM | [2] 21.7 µM | [3] 3.01 µM | [4] 23.6 µM | [5] 17.4 µM | [7] 8.11 µM | [8] 35.6 µM | [10] 23 µM | [11] 23.6 µM | [12] 3.29 µM | [13] 2.84 µM

CO[C@H](C(=O)O[C@H]1C(=O)N2CC[C@@H]3CCC[C@H]1C32C)c1ccccc1 (stereo partly specified)
inactive: [1] > 100 µM | [2] > 100 µM | [3] > 100 µM | [4] > 100 µM | [5] > 100 µM | [6] > 100 µM | [7] > 100 µM | [8] > 100 µM | [9] > 100 µM | [10] > 100 µM | [11] > 100 µM | [12] > 100 µM | [13] > 100 µM

O=C(/C=C/c1ccc[nH]1)c1ccccc1
inactive: [1] > 100 µM | [2] > 100 µM | [3] > 100 µM | [5] > 100 µM | [6] > 100 µM | [7] > 100 µM | [8] > 100 µM | [9] 95.9 µM | [10] > 100 µM | [11] > 100 µM | [12] > 100 µM | [13] > 100 µM
